Source: patent US12723233B2, “Media and methods for differentiating natural killer cells” (STEMCELL Technologies Canada Inc., priority 2018, dated 2026)

Key:
PSC-derived CD34+ cells = assay: Differentiation of PSC-derived CD34+ cells into CD5+CD7+ NK cell progenitors; assay type: cell-based, Human; conditions: 1 μM UM729 during days 10 to 24; PSC lines 1C, M001, H1, F016
Procedure: PSC-derived […] cells were generated as described in Example 11. The PSC-derived […] cells were cultured as described in Example 11, except the effect of the presence or absence of 1 μM UM729 on the differentiation of a population of NK cell progenitors was assessed. The cells were stained for CD5 and CD7 essentially as described in Example 3 and analyzed for frequency of CD5^+CD7^+ cells and yield of CD5^+CD7^+ cells per 5×10^4 input PSC-derived […] cells. Both the frequency (FIG. 15A) and yield (FIG. 15B) of CD5^+CD7^+ cells decreased after culturing the PSC-derived […] cells in the presence of UM729, as compared to culturing such cells in the absence of UM729. Therefore, the presence of UM729 during days 10 to 24 of culturing PSC-derived […] cells decreases the frequency and yield of CD5^+CD7^+ NK progenitor cells.

K562 target cells = assay: Calcein AM release cytotoxicity assay of differentiated CD56+ NK cells; assay type: cell-based; conditions: cells differentiated in the presence of 1 μM UM729, day 28; effector to target ratio 5:1, 4 hours
Procedure: CD56^+ NK cells were differentiated as described in Examples 1 and 2 in the presence of 1 μM UM729 and analyzed on day 28 for their cytotoxicity toward K562 target cells.
For the cytotoxicity assay, the in vitro generated CD56^+ NK cells were co-cultured with Calcein AM labeled K562 cells for 4 hours at a ratio of 5:1 for effector cells (NK cells) to target cells (K562 cells), and supernatants were analysed for the release of fluorescent Calcein from killed target cells.
Peripheral blood (PB) NK cells and Monocytes isolated using EasySep™ (STEMCELL Technologies, Catalogue #17955 and 19359, respectively) were also co-cultured with labelled K562 cells as positive and negative controls, respectively, at the same ratios described above.
To detect spontaneous release of calcein, control wells containing only calcein AM-labeled K562 target cells were set up. The labeled K562 cells were treated with 1% Triton™ X-100 to measure maximum release. After incubation, plates were centrifuged at 500×g for 5 minutes and 100 μL of supernatant was transferred to black plates and analyzed using a SpectraMax® microplate reader (excitation 485 nm/emission 530 nm). Results are expressed as % specific lysis: [(test release−spontaneous release)×100]/(maximum release−spontaneous release).

[1] = tested on: sorted day 14 populations of NK cell progenitors; assay: Differentiation of sorted day 14 NK cell progenitor subsets to CD56+ NK cells, cultured another 14 days; assay type: cell-based, Human
Source text: CD34^+ CB cells were isolated and cultured as described in Example 1 up to the day 14 time point. NK cell progenitors derived from CB CD34^+ HSPCs after 14 days of culture were stained, essentially as described in Example 3, with antibodies against markers CD5, CD7, and CD56. CD56^− cells were gated and CD7^+CD5^−, CD7^+CD5^+, CD5^−CD7^− cells were sorted using a BD FACSAria Fusion fluorescence-activated cell sorter. To investigate which subset of the day 14 population of NK cell progenitors is targeted by pyrimidoindole compounds, the CD7^+CD5^−, CD7^+CD5^+ and CD7^−CD5^− sorted populations were each cultured for another 14 days in NK Cell Differentiation medium without or with UM729. CD34^+ CB cells were isolated and cultured as described in Example 1 up to the day 14 time point. NK cell progenitors derived from CB CD34^+ HSPCs after 14 days of culture were stained, essentially as described in Example 3, with antibodies against markers CD5, CD7, CD34, and CD56. CD56^− cells were gated and […], and CD34^− CD7^+CD5^− and CD34^−CD7^+CD5^+ were sorted using a BD FACSAria Fusion fluorescence-activated cell sorter. CD7 cells were sorted as a negative control. To investigate which subset of the day 14 population of NK cell progenitors is targeted by pyrimidoindole compounds, the CD34^+CD7^+CD5^− and CD34^+CD7^+CD5^+, and CD34^−CD7^+CD5^− and CD34^− CD7^+CD5^+ sorted populations were each cultured for another 14 days in NK Cell Differentiation medium with or without UM729.

[2] = tested on: PSC-derived NK cell progenitors; assay: Differentiation of PSC-derived NK cell progenitors to CD56+ cells; assay type: cell-based, Human; conditions: PSC lines 1C, M001, H1, F016; UM729 during days 24 to 38
Procedure: Three induced pluripotent stem cell (iPSC) lines—WLS-1C, STiPSC M001, and STiPS F016—and one embryonic stem cell (ESC) line—H1 were maintained in mTeSR™ 1. The PSC were harvested and dissociated using accutase into single cell suspensions and were filtered using 37 μm reversible strainer (STEMCELL Technologies).
Single cell suspensions of PSC were seeded into AggreWell plates (STEMCELL Technologies) to form 500-cell aggregates. The seeded cells were cultured in a mesoderm differentiation medium and 10 μM Y027632 (STEMCELL Technologies). After 3 days (i.e. on day 3) in culture the medium was changed to induce hematopoietic lineage differentiation. After 7 days (i.e. on day 10) in culture the aggregates were harvested and dissociated using collagenase II and a trypsin-containing solution.
Dissociated cells were enriched for CD34^+ cells using EasySep™ Human CD34 Positive Selection Kit II (STEMCELL Technologies, catalogue #17856). […]
The cells were stained for CD56 essentially as described in Example 3 and analyzed for frequency of CD56^+ cells and yield of CD56^+ cells per 5×10^4 input PSC-derived CD34^+ cells. […]

[3] = sorted CD7+CD5+ cells, 14 days with UM729, three donors
[4] = sorted CD7+CD5− cells, 14 days with UM729, three donors
[5] = sorted CD34−CD7+CD5+ cells, 14 days with UM729
[6] = sorted CD34−CD7+CD5− cells, 14 days with UM729

In the case of `COC(=O)c1ccc2c(c1)[nH]c1ncnc(NCCCN3CCCCC3)c12` [UM729, methyl 4-((3-(piperidin-1-yl)propyl)amino)-9H-pyrimido[4,5-b]indole-7-carboxylate], the “Frequency of CD5+CD7+ cells compared to absence of UM729” value (PSC-derived CD34+ cells) is reported as “decreased”, the “Yield of CD5+CD7+ cells per 5×10^4 input PSC-derived cells compared to absence of UM729” value (PSC-derived CD34+ cells) is reported as “decreased” and the “Cytotoxicity (killing ability) of differentiated NK cells toward K562 target cells” value (K562 target cells) is reported as “able to kill K562 target cells”. For the same molecule, the “Frequency of NK cells compared to culture conditions lacking UM729” value [1, 3] was “higher”, the “Yield of NK cells compared to culture conditions lacking UM729” value [1, 3] was “higher” and the “Frequency of NK cells compared to culture conditions lacking UM729” value [1, 4] was “higher”. For the same molecule, the “Yield of NK cells compared to culture conditions lacking UM729” value [1, 4] was “higher”, the “Expansion and differentiation to NK cells” value ([1]; sorted CD7−CD5− cells, presence or absence of UM729) was “did not expand and differentiate to NK cells” and the “Responsiveness of CD34+ NK progenitor cell subsets to UM729” value ([1]; sorted CD34+CD7+CD5− and CD34+CD7+CD5+ cells, 14 days with UM729) was “do not appear responsive”. The “Frequency of NK cells compared to culture conditions lacking UM729” value [1, 5] was “higher”, the “Yield of NK cells compared to culture conditions lacking UM729” value [1, 5] was “higher” and the “Frequency of NK cells compared to culture conditions lacking UM729” value [1, 6] was “higher”. For the same molecule, the “Yield of NK cells compared to culture conditions lacking UM729” value [1, 6] was “higher”, the “Frequency of CD56+ cells compared to absence of UM729” value [2] was “increased” and the “Yield of CD56+ cells per 5×10^4 input PSC-derived CD34+ cells compared to absence of UM729” value [2] was “increased”.
